We go through ten compounds from PMC7036801, “Synthesis of New Cisplatin Derivatives from Bile Acids” (Molecules, 2020).

A value given as a limit tells only on which side of the number the result lay.

Series [1] has as its system normal human fibroblasts (BJ). In words: Cytotoxicity assay (Alamar Blue), BJ. In kind it is cell-based. As to conditions: BJ cells, 72 h of treatment, in DMF. On the procedure:
(§1) All new platinum(II) complexes were screened for cytotoxic activity against following tumor cell lines: T-lymphoblastic leukemia (CEM), epithelial breast carcinoma (MCF7), and cervical carcinoma cell lines (HeLa) (Table 2). A control of cytotoxicity was done with normal human fibroblasts (BJ) and human umbilical vein endothelial cells (HUVEC). The cytotoxicity of all substances in BJ and HUVEC was very similar. […] Its sensitivity against HeLa cell line (7.0 µM) was better than that of cisplatin (11.4 µM). However, the toxicity of 23a against normal human cells (BJ and HUVEC) was similar to that of cisplatin. […] Taking into account lack of activity of cholic and hyodeoxycholic acids-based complexes at studied concentrations (against all tested cell lines IC50 > 50 µM) we can suppose that modifications of bile acids should be focused on the most lipophilic lithocholic acid derivatives. The results presented here provide an inspiration for further studies in this area.
(§2) Cisplatin derivatives were evaluated for their cytotoxic activities in vitro in following cell lines derived from various tumors: T-lymphoblastic leukemia (CEM), epithelial breast carcinoma (MCF7) and cervical carcinoma cell lines (HeLa) (all from ECACC, UK) and also in normal human fibroblasts (BJ; from ATCC, USA). Human umbilical vein endothelial cells (HUVEC) were a kind gift from Prof Jitka Ulrichová (Medical Faculty, Palacký University, Olomouc, Czech Republic). HUVEC were grown in ECPM medium (Provitro, Berlin, Germany). Six serial 3-fold dilutions in triplicate of each drug in DMF was administered in every cell line for 72 h. Alamar Blue dye was used for staining of living cells only. IC50 values (50% inhibitory concentrations) were calculated as the proportions of surviving cells. A detailed procedure for the cytotoxicity assay was described previously, except for using Alamar Blue dye instead of Calcein AM [37]. Briefly, the percentage of surviving cells in each well was calculated by dividing the intensity of the fluorescence signals from the exposed wells by the intensity of signals from control wells and multiplying by 100. These ratios were then used to construct dose–response curves, from which IC50 values, i.e., concentrations of the respective compounds that were lethal to 50% of the tumor cells, were calculated. The results obtained from cytotoxicity assays are shown in Table 2 (mean values ± SD obtained from three independent experiments performed in triplicate).
Background: Alamar Blue is a resazurin reagent that responds to reducing activity.

Series [2] has as its system cervical carcinoma cell lines (HeLa). Nature of the series: Cytotoxicity assay (Alamar Blue), HeLa. Type of series: cell-based, human. As to conditions: HeLa cells, 72 h of treatment, in DMF. On the procedure: as §1, §2
Series [3] has as its system human umbilical vein endothelial cells (HUVEC). Nature of the series: Cytotoxicity assay (Alamar Blue), HUVEC. In kind it is cell-based. As to conditions: 72 h of treatment, in DMF. On the procedure: as §1, §2
The subject of series [4] is epithelial breast carcinoma (MCF7). Nature of the series: Cytotoxicity assay (Alamar Blue), MCF7. Type of series: cell-based, human. The note with it: MCF7 cells, 72 h of treatment, in DMF. On the procedure:
as §1, §2

The subject of series [5] is T-lymphoblastic leukemia (CEM). In words: Cytotoxicity assay (Alamar Blue), CEM. Type of series: cell-based, human. As to conditions: CEM cells, 72 h of treatment, in DMF. On the procedure:
as §1, §2

The mark [6] stands for this setting: test done at temperature 37 °C due to solubility problems.

Consider `C[C@H](CCCNCCN)[C@H]1CC[C@H]2[C@@H]3CCC4C[C@H](O)CC[C@]4(C)[C@H]3CC[C@]12C` (stereo partly drawn), for which the melting point (usually the temperature of the solid-liquid transition) is 107 to 110 °C.
`C[C@H](CCCNCCN)[C@H]1CC[C@H]2[C@@H]3CCC4C[C@H](O)CC[C@]4(C)[C@H]3C[C@H](O)[C@]12C` (stereo partly drawn) gave a melting point of 70 to 72 °C.
On the same count and under the same terms, the result for `C[C@H](CCCNCCN)[C@H]1CC[C@H]2[C@@H]3C[C@H](O)C4C[C@H](O)CC[C@]4(C)[C@H]3CC[C@]12C` (stereo partly drawn) reads 72 to 74 °C; that for `C[C@H](CCCNCCCN)[C@H]1CC[C@H]2[C@@H]3CCC4C[C@H](O)CC[C@]4(C)[C@H]3CC[C@]12C` (stereo partly drawn), 92 to 94 °C; that for `C[C@H](CCCNCCCN)[C@H]1CC[C@H]2[C@@H]3CCC4C[C@H](O)CC[C@]4(C)[C@H]3C[C@H](O)[C@]12C` (stereo partly drawn), 64 to 66 °C.
As to `N.N.[Cl][Pt][Cl]` [cisplatin], the 50% inhibitory concentration (IC50) (in general, the concentration needed to halve the response being measured) in series [1] (mean ± S.D.) stood at 6.9 ± 0.9 µM; in series [2] (mean ± S.D.), 11.4 ± 3.8 µM; in series [3] (mean ± S.D.) it was 5.5 ± 1.1 µM; in series [4] (mean ± S.D.), 7.7 ± 1.7 µM; in series [5] (mean ± S.D.), 0.8 ± 0.1 µM.
For the compound “cis-Dichloro-24-[(N-2′-aminoeth-1′-yl-κN)aminocholan-3α-ol-κN]platinum(II) [22a]”, the IC50 in series [1] (setting [6]) is above 50 µM; in series [2] (setting [6]), above 50 µM; in series [3] (setting [6]), above 50 µM; in series [4] (setting [6]) it was above 50 µM; in series [5] (setting [6]) it was 40.2 ± 2.6 µM.
For “cis-Dichloro-24-[(N-2′-aminoeth-1′-yl-κN)aminocholane-3α,12α-diol-κN]platinum(II) [22b]”, the IC50 worked out at 36.6 ± 5.1 µM in series [1] (mean ± S.D.); 35.5 ± 5.3 µM in series [2] (mean ± S.D.); 38.2 ± 0.6 µM in series [3] (mean ± S.D.); 20.5 ± 3.1 µM in series [4] (mean ± S.D.); 37.1 ± 6.8 µM in series [5] (mean ± S.D.).
For “cis-Dichloro-24-[(N-3′-aminoprop-1′-yl-κN)aminocholan-3α-ol-κN]platinum(II) [23a]” the same measures were 6.3 ± 0.8 µM, 7 ± 0.2 µM, 6.9 ± 0.6 µM, 7 ± 0.5 µM and 3.6 ± 0.1 µM.
For “cis-Dichloro-24-[(N-3′-aminoprop-1′-yl-κN)aminocholane-3α,12α-diol-κN]platinum(II) [23b]”, the IC50 in series [1] (mean ± S.D.) stood at 42.5 ± 3.2 µM; in series [2] (mean ± S.D.), 36.2 ± 4.3 µM; in series [3] (mean ± S.D.), 34.4 ± 5.6 µM; in series [4] (mean ± S.D.), 23.3 ± 4.7 µM; in series [5] (mean ± S.D.), 31.6 ± 3.5 µM.
